Here are results for nine molecules from PMC7592376, “Design and synthesis of multi-target directed 1,2,3-triazole-dimethylaminoacryloyl-chromenone derivatives with potential use in Alzheimer's disease” (BMC Chemistry, 2020).

“And” between values parts separate entries of the source, which are not always exact repeats. Equal values may be shown once. Read-outs that look alike come from different tables or passages of the source. Bounds are passed on as bounds.

One data set has as its system PC12 cells. The data set is described as follows: Neuroprotection against Aβ25-35-induced damage, MTT assay. The conditions noted are these: up to 50 μM, Aβ25-35 5 μM. Type of data set: cell-based. Here is the method:
Compound 10h was selected to study the neuroprotective ability using PC12 cell injury induced by Aβ25–35 by MTT assay.
MTT reduction assay was used to evaluate the neuroprotective effect of compound 10h on neuronal PC12 cell damage induced by Aβ25-35. The cells were grown in monolayer culture on collagen-coated plates at 37 °C in a humidified atmosphere of 5% CO2. Neuronal PC12 cells were plated at a density of 5 × 10^5 cells/well on 96-well plates. The cells were pre-incubated with compound 10h for 3 h before human Aβ 25–35 (final concentration of 5 μM) was added. After 24 h, 90 μL the medium was taken out and 20 μL of MTT (0.5 mg/ml dissolved in RPMI containing phenol red) was added and incubated for an additional 2 h at 37 °C. The absorbance (A570 nm) was measured using a Bio-Rad microplate reader (Model 680, Bio-Rad). The details were reported in our previous work.

Data set [1] addresses T1, BuChE (Homo sapiens, UniProt P06276).
T1 construct: purchased Aldrich
Briefly: Kinetic study of BuChE inhibition (Lineweaver-Burk and secondary plot). Type of data set: biochemical. The method, then:
The kinetic study was performed to investigate the mechanism of inhibition by compound 10h against BuChE.
The Lineweaver–Burk reciprocal plot was provided by plotting 1/V against 1/[S] at variable concentrations of butyrylthiocholine as the substrate (187.5, 750, 1500, 3000 µM).

Data set [2] concerns the target T2, AChE (Electrophorus electricus, UniProt O42275).
T2 construct: purchased Aldrich
The data set is described as follows: biochemical. The note with it: mean ± SD, three independent experiments; read-out: AChEI IC50. Here is the method: (§1) All enzymes and reagents required for the assay were obtained from Aldrich. […] Each well contained 50 µL potassium phosphate buffer (KH2PO4/ K2HPO4, 0.1 M, pH 8), 25 µL sample solution, and 25 µL enzyme (final concentration 0.22 U/mL in buffer). Control experiments were also performed under the same conditions without enzyme. After incubation at room temperature for 15 min, 125 µL DTNB (3 mM in buffer) was added and the characterization of enzymatic reaction was spectrometrically performed at 405 nm followed by the addition of substrate (ATCI 3 mM in water) after 5–10 min. The IC50 values were determined graphically from inhibition curves (log inhibitor concentration vs. percent of inhibition). Also, the same method was used for the BuChE inhibition assay.

Data set [3] concerns the target T1, BuChE. Briefly: biochemical. The conditions noted are these: mean ± SD, three independent experiments; read-out: BuChEI IC50. Here is the method: as §1
Data set [4] addresses AChE-induced Aβ1-40 peptide aggregation (Homo sapiens, UniProt P05067). Briefly: biochemical. The conditions noted are these: read-out: % Inhibition AChE-induced Aβ aggregation. The method, then: (§2) Inhibition of Aβ1-42 self-aggregation was measured by ThT fluorescence assay. The details of the method were reported in our previous study. To study Aβ42 aggregation inhibition, a reported method, based on the fluorescence emission of ThT was followed. Briefly, the mixtures of Aβ1-40 peptide (Bachem company, Switzerland) and AChE (Sigma, Electrophorus electricus), in the presence or absence of the test inhibitor were incubated for 24 h at room temperature.

The target in a further data set is Aβ1-42 (Homo sapiens, UniProt P05067). Briefly: biochemical. The conditions noted are these: read-out: % Inhibition self-induced Aβ1–42 aggregation. Here is the method:
as §2

Data set [5] is described as follows: Metal chelation studies by UV spectra and molar ratio method. Type of data set: physicochemical. The method, then: The stoichiometry of complex 10h-Cu^2+ was also studied (Fig. 4) due to important role of copper ions in AD [38]. The concentration of the test compound 10h was 20 μM and the final concentration of Cu^2+ ranged from 0–44 μM with 4 μM intervals at 303.5 nm.
The plot was obtained by the corresponding absorption against the mole fraction of Cu^2+ to ligand 10h. According to the plot, the ratio 1:1 complexation ration of 10h-Cu^2+ can be seen at the fracture point of the plot with the mole fraction of […].
To study the metal chelating ability, the solutions of compound 10h and Fe^2+, Cu^2+, and Zn^2+ ions (from FeSO4, CuCl2.2H2O, and ZnCl2) were prepared in methanol. The mixture of compound 10h (1 mL) and the test ion solutions (1 mL) with the same final concentration of 20 µM in a 1 cm quartz cuvette was incubated at room temperature for 30 min. Then, the absorption spectra were recorded in the range of 200–600 nm.
The stoichiometry of complex 10h-Cu^2+ was also studied using the molar ratio method. The concentration of compound 10h was 20 μM and the final concentration of Cu^2+ ranged from 0–44 μM with 4 μM intervals at 303.5 nm. The plot was obtained by the corresponding absorption versus mole fraction of Cu^2+ to ligand 10h. All experiments were performed in triplicate.

The target in data set [6] is T1, BuChE. Also noted: method as in PMID 29421707, PMID 27914694, PMID 31327094, doi:10.1007/s00044-018-2187-8, PMID 25531792. The note with it: literature compounds of Fig. 1; read-out: BuChEI, IC50; cited from earlier work.
Data set [7] deals with T2, AChE. Also noted: method as in PMID 29421707, PMID 27914694, PMID 25531792. The note with it: literature compounds of Fig. 1; read-out: AChEI, IC50; cited from earlier work.
Data set [8] relates to Aβ. Also noted: method as in PMID 29407958, PMID 29763808, PMID 32131034. The note with it: at 25 μM; cited from earlier work.
The test system of data set [9] is Aβ. Also noted: method as in PMID 29407958, PMID 29763808, PMID 32131034. The note with it: at 100 μM; cited from earlier work.
The test system of a further data set is neuronal cell line. Also noted: method as in PMID 29107423. The conditions noted are these: cited from earlier work.

T1 sequence (P06276 29-602): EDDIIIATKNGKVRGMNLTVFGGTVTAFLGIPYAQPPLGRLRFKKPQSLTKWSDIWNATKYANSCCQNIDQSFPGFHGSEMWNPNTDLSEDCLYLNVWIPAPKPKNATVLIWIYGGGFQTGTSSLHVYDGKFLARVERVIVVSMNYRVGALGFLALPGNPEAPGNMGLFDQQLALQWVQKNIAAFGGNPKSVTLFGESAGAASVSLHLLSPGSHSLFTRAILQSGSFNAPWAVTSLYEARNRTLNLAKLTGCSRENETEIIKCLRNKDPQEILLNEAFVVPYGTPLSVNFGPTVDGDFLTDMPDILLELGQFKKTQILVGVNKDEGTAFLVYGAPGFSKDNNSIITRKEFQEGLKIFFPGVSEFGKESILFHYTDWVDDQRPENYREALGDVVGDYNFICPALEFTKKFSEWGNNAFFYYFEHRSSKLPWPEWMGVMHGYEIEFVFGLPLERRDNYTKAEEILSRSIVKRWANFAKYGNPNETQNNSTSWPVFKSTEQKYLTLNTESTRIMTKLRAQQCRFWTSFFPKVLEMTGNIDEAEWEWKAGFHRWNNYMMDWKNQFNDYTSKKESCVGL
T2 sequence (O42275 24-633): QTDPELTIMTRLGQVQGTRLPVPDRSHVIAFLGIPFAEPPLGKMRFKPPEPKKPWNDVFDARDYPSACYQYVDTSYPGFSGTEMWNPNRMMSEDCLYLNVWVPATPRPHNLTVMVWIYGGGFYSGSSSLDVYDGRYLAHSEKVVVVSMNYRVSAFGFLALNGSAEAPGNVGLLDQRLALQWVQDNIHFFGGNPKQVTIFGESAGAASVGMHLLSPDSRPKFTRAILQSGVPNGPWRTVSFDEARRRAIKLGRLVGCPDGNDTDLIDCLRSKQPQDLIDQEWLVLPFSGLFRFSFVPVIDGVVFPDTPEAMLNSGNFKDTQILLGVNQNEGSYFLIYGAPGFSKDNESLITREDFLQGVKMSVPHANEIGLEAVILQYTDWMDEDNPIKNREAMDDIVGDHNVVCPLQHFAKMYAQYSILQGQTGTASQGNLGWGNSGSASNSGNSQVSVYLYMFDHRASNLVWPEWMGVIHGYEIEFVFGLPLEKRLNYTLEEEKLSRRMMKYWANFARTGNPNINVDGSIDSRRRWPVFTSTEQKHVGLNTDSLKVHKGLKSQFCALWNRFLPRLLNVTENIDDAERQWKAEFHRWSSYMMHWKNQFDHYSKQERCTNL
Chain of Aβ1-42 (P05067 672-713 limits assumed): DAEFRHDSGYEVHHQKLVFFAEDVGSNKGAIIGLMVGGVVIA
Chain of AChE-induced Aβ1-40 peptide aggregation (P05067 672-711): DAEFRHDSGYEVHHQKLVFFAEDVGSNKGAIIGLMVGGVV

For the molecule `CN(C)/C=C/C(=O)c1cc2ccc(OCc3cn(Cc4ccc(F)c(F)c4)nn3)cc2oc1=O` [Compound 10h, (E)-7-((1-(3,4-Difluorobenzyl)-1H-1,2,3-triazol-4-yl)methoxy)-3-(3-(dimethylamino)acryloyl)-2H-chromen-2-one], the “neuroprotective effect on Aβ-induced PC12 cell injury” value in the data set with PC12 cells is listed as “no neuroprotective effect”. Further, the “inhibition pattern (Lineweaver-Burk plot)” value against BuChE [1] (BuChE, inhibitor 0, 10.7, 42.9, 85.8 µM) is on record as “mixed-type inhibition”. Moreover, on BuChE [1] (from secondary plot of slopes vs inhibitor concentration, substrate butyrylthiocholine), the affinity corresponds to a Ki of 38.3 µM. At AChE [2], the IC50 is greater than 100 µM. Also, the 50% inhibitory concentration (IC50) on BuChE [3] was determined as 21.7 ± 0.57 µM. In addition, the inhibition at 100 µM in data set [4] amounted to 29.4 ± 1.5%. The inhibition at 10 µM at Aβ1-42 was 32.6 ± 2%. Besides, the “metal chelating ability (in words)” value in data set [5] (Fe2+, Cu2+, Zn2+) is “able to chelate biometals”. In addition, in [5] (methanol, 20 µM each, 30 min), the “UV absorption peaks after interaction with Cu2+” value was 303.5 nm and 382.4 nm; the “UV absorption peaks after interaction with Fe2+” value was 303.5 nm and 390.9 nm; the “UV absorption peaks after interaction with Zn2+” value is 299.2 nm and 388.7 nm. Further, the “UV absorption peaks of compound alone” value in [5] (methanolic solution 20 µM) was 309.9 nm and 386.7 nm.
As for `Nc1c2c(nc3ccccc13)CCCC2` [Tacrine, reference compound], in data set [4], the inhibition at 100 µM worked out at 6.7 ± 0.9%. In addition, at Aβ1-42, the inhibition at 10 µM came to 7.6 ± 1.4%.
For `O=C(NCc1cc[n+](Cc2cccc(F)c2)cc1)c1cc2ccccc2oc1=O` [compound A], the IC50 at BuChE [6] was 12.2 µM.
For the molecule `COc1ccc(Cn2cc(COc3ccc4ccc(=O)oc4c3)nn2)cc1` [compound B], the IC50 on AChE [7] was 3.4 µM; at BuChE [6], 1.1 µM.
`Clc1ccc(Cn2cc(CSc3nnc(-c4ccccc4)c(-c4ccccc4)n3)nn2)cc1` [compound C]: on BuChE [6], the IC50 is 6.41 µM.
On to `CN(C)CCC(=O)c1ccc(-c2ccc(C(=O)CCN(C)C)cc2)cc1` [compound D], for which the 50% inhibitory concentration (IC50) on AChE [7] was 19.9 µM; on BuChE [6], 0.32 µM.
With `Cc1cc(=O)oc2cc(OCCCCSC(=S)N3CCCCC3)ccc12` [compound E], the Aß aggregation inhibition in the data set on Aβ [8] is reported as 40.19%.
`COc1ccc(-c2cc3ccc(OCCCn4cc(CNC(=O)CCCCC5CCSS5)nn4)cc3oc2=O)cc1OC` (centres unmarked) [compound F]: in the data set with Aβ [9], the “Aß self aggregation inhibition” value is on record as 51.2%.
In the case of `N=c1oc2ccccc2cc1C(=O)Nc1cc(Br)ccc1NCc1cn(CCC2C(=O)c3ccccc3C2=O)nn1` [compound G], the 50% inhibitory concentration (IC50) with neuronal cell line is 7.9 µM.

The term Ki denotes the dissociation constant of the complex between target and ligand, obtained from inhibition or displacement. Broadly, the IC50 is the point on the concentration scale where inhibition reaches its midpoint. Usually inhibition stands for the drop in the measured response relative to a control, in per cent.
